# “Also recorded” adds a separate entry of the source.
# Test system: TPA-induced edema of mouse ears
# Assay: TPA-induced mouse ear edema assay of quercetin-3-O-(6″-benzoyl)-β-galactoside (Example 3)
# Type: in vivo, mouse (CD-1 female)
# Settings: topical, purified compound
# Procedure: The anti-inflammatory activity of quercetin-3-O-(6″-benzoyl)-β-galactoside (Peak 19) was tested in vivo with the 12-O-tetradecanoylphorbol-13-acetate (TPA)-induced mouse ear edema assay. Each of the treatments was topically applied to both ears of at least five CD-1 female mice. Treatments included application of either acetone or curcumin controls or the test extract in 20 μl of acetone twenty minutes prior to application of 1.5 nmol of TPA in acetone. After 7 hours post-treatment, mice were sacrificed and 6 mm diameter ear punch biopsies were taken and weighed. The ratio of the difference in the weight of ear punches between TPA treated groups receiving pretreatments of acetone and the test extract, respectively, to the difference in the weight of ear punches between acetone pretreated groups subsequently treated with TPA and acetone, respectively, indicates the degree of anti-inflammatory activity of the test extract.
smiles,measurement,value
O=C(OC[C@H]1O[C@@H](Oc2c(-c3ccc(O)c(O)c3)oc3cc(O)cc(O)c3c2=O)[C@H](O)[C@@H](O)[C@H]1O)c1ccccc1 [quercetin-3-O-(6″-benzoyl)-β-galactoside],anti-inflammatory activity in the TPA-induced mouse ear edema assay (in words),potent anti-inflammatory agent; also recorded: highly effective inhibitor of inflammation

# Reference: patent US7270837B2, “Anti-inflammatory cranberry flavonol extract preparations” (Rutgers, The State University of New Jersey, priority 2003, dated 2007)
